# From patent US20230248717A1, “N-(3-HYDROXYPYRIDINE-2-CARBONYL)GLYCINE-BASED ANTITUMOR DRUG SENSITIZER AND APPLICATION THEREOF” (ZHEJIANG UNIVERSITY, priority 2019, published 2023)
# Read-outs that look alike come from different tables or passages of the source.
# Experiments:
# [1] = tested on: CT26 mouse colon cancer cells;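 note: MTT read-out taken as absorbance at 562 nm after a 3 h dye incubation, medium-only wells as blank, values averaged over three independent experiments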
# Protocol: (§1) CT26 cells (MC38 cells, 4T1 cells, B16FIO cells, HePa1-6 cells, H22 cells, LLC cells, MB49 cells, P388 cells, C6 cells, BXPC-3 cells, Hela cells, MDA-MB-231 cells, A2780 cells. PC3 cells. HepG2 cells, and HGC-27 cells) were cultured at 5,000 cells/well in a 96-well plate, 100 μL of a medium was added to each well, and the cells were incubated in a 37° C. constant-temperature incubator with 5% CO2 and 95% humidity for 24 h. 100 μL of different concentrations of drugs (DOX: 0.01 μg/mL to 10 μg/mL; PTX: 0.01 μg/mL to 50 μg/mL; Cela: 0.05 μg/mL to 1 μg/mL; sensitizer: 5 μg/mL) were added to each well, while 100 lit of a medium solution was added to the blank group. After culturing for 48 h, centrifugation was conducted at 1,100 rpm for 6 min, the medium in each well was discarded, 100 μL of an 11,11T working solution was added, and the culturing was continued for 3 h. Centrifugation was conducted at 3,300 rpm. for 5 min, the MITT medium in each well was discarded, 100 pt, of the DMSO was added, and the plate was shaken for 5 min to dissolve all crystals in each well. An absorbance of the sample at 562 nm was detected by a microplate reader. Each set of data was an average of three independent experimental results on the same sample.
# [2] = tested on: CT26 mouse colon cancer cells; test: Cytotoxicity (MTT) in combination with chemotherapeutic drugs;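 note: MTT read-out taken as absorbance at 562 nm after a 3 h dye incubation, medium-only wells as blank, values averaged over three independent experiments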
# Protocol: as §1
# [3] = tested on: mRNA expression of PD-L1 in CT26 cells; test: PD-L1 mRNA expression in tumor cells by qPCR; assay type: cell-based, mouse; conditions: 5 μM, 48 h, GAPDH internal reference
# Protocol: CT26 cells were inoculated in a 6-well plate at 2×10^5 cells per well and placed in a 37° C. incubator. After the cells adhered, DMSO solutions (5 μM) of the compounds of the present disclosure were added separately, and the incubation was continued for 48 h. Total RNA was lysed and extracted, and reverse transcription and PCR experiments were conducted to detect an RNA level of PD-L1 in CT26 cells, using a GAPDH gene as an internal reference.
# [4] = tested on: HIF-1α expression in CT26 cells; test: HIF-1α expression in tumor cells by flow cytometry; assay type: cell-based, mouse; conditions: 5 μM, 24 h, vs blank control
# Protocol: CT26 cells were evenly plated in a 6-well plate at 2×10^4 cells per well. After the cells adhered, DMSO solutions (5 μM) of the different compounds of the present disclosure were added separately, and the incubation was continued for 24 h. The medium was discarded, the cells were rinsed three times with PBS, and 0.2 mL of trypsin containing EDTA was added to each well. The digested cells were collected in a flow tube, and a supernatant was removed by centrifugation; the cells were resuspended in a PBS containing 5% goat serum, and an FITC anti-mouse HIF-1α antibody (1 μg/1×10^6 cells) was added, incubated at 4° C. for 30 min, and washed three times with PBS, and subjected to flow detection on-machine.
# [5] = tested on: PD-L1 expression in CT26 cells; test: PD-L1 expression in tumor cells by Western blot; assay type: cell-based, mouse; conditions: 5 μM, 48 h
# Protocol: CT26 cells were inoculated in a 6-well plate at 2×10^4 cells per well and placed in a 37° C. incubator. After the cells adhered, DMSO solutions (5 μM) of compounds 1 to 8 were added separately, and the incubation was continued for 48 h. The medium was discarded, the cells were rinsed three times with pre-cooled PBS, and the washing solution was discarded. 0.2 nrii, of a cell lysis solution containing a protease inhibitor was added to each well and placed on ice to conduct lysis for 30 min.
# After the lysis was completed, a lysate and cell debris were scraped to one side of the Petri dish with a cell scraper, the lysate was transferred to a 1.5 mL Ep tube with a pipette, centrifuged at 4° C. (12,000 rpm/5 min), and a supernatant was collected to determine its protein concentration.
# The protein sample was diluted with a 1UPAlysis buffer to a certain concentration, 5×SDS loading buffer was added in a protein amount of 1 μg/μL, incubated on a metal bath at 95° C. for 5 min, cooled to room temperature, and the sample was loaded to an SDS-PAGE electrophoresis gel (5% for stacking gel and 12% for resolving gel). Under a voltage of 90 V, the protein was run to the bottom of the stacking gel to form a straight line, then the voltage was adjusted to 125 V, and the electrophoresis was stopped after the bromophenol blue appeared. […]
# [6] = CT26 cell line, chemotherapeutic drug in combination with compound 7 (sensitizer 5 μg/mL), 48 h
SMILES,IC50 [1] [mg/L],"IC50, Compound 7+ [2, 6] [mg/L]",other results
O=C1c2c(O)ccc(O)c2C(=O)c2c(NCCNCCO)ccc(NCCNCCO)c21 [Mitoxantrone],2.12 ± 0.297,0.815 ± 0.021,–
CCc1c2c(nc3ccc(OC(=O)N4CCC(N5CCCCC5)CC4)cc13)-c1cc3c(c(=O)n1C2)COC(=O)[C@]3(O)CC [Irinotecan],2.42 ± 0.197,1.415 ± 0.022,–
O=C(O)CNC(=O)c1ncc(-c2cccc(Cl)c2)cc1O [compound 6],–,–,mRNA expression level of PD-L1 [3]: best effect; expression of HIF-1α in tumor cells [4]: best effect; expression of PD-L1 in tumor cells (Western blot) [5]: best effect
CC(=O)O[C@@]12CO[C@@H]1C[C@H](O)[C@@]1(C)C(=O)[C@H](O)C3=C(C)[C@@H](OC(=O)[C@H](O)[C@@H](NC(=O)OC(C)(C)C)c4ccccc4)C[C@@](O)([C@@H](OC(=O)c4ccccc4)[C@H]21)C3(C)C [Docetaxel],–,0.029 ± 0.005,–
O=C1[O][Pt]2([NH][C@@H]3CCCC[C@H]3[NH]2)[O]C1=O [Oxaliplatin],–,–,"IC50, Compound 7+ [2]: 0.197 ± 0.022 mg/L; IC50, Compound 7− [2]: 0.650 ± 0.009 mg/L"
N.N.[Cl][Pt][Cl] [Cis-platinum],1.28 ± 0.146,0.571 ± 0.068,–
CCc1c2c(nc3ccc(O)cc13)-c1cc3c(c(=O)n1C2)COC(=O)[C@]3(O)CC [7-ethyl-10-hydroxycamptothecine],0.066 ± 0.006,0.025 ± 0.001,–
CC(C)=CCC[C@]1(C)C=Cc2c(O)c3c(c(CC=C(C)C)c2O1)O[C@]12C(=C[C@@H]4C[C@H]1C(C)(C)O[C@@]2(C/C=C(/C)C(=O)O)C4=O)C3=O [Gambogic acid],2.18 ± 0.454,0.792 ± 0.181,–
